# In patent US8546375B2, “(3-(4-(aminomethyl)phenoxy or phenylthio)azetidin-1-yl)(5-phenyl-1,3,4-oxadiazol-2-yl)methanone compounds” (AstraZeneca AB, priority 2010, dated 2013):
# Target: T1, Melanin Concentrating Hormone Receptor 1 (MCHR1) (Homo sapiens, UniProt Q99705)
# T1 construct: expressed in transfected cells
# Assay: MCHR1 Receptor Activation Assay (GTPγ^35S)
# Format: biochemical
# Settings: read-out: GTPγ^35S IC50
# T1 sequence (Q99705 whole entry): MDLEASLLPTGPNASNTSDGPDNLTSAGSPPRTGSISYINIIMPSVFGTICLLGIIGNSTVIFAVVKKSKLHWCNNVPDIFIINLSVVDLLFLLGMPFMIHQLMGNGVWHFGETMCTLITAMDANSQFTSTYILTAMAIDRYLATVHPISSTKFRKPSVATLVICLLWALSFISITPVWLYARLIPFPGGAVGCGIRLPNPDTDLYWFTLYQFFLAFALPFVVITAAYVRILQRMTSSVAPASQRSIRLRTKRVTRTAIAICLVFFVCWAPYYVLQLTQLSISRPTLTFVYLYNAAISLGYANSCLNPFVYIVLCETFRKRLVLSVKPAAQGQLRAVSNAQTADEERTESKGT
row,Structure (SMILES),IC50 [nM]
1,"Cc1cc(OC2CN(C(=O)c3nnc(-c4ccccc4)o3)C2)ccc1CN(C)C [Example 21, (3-(4-((Dimethylamino)methyl)-3-methylphenoxy)azetidin-1-yl)(5-phenyl-1,3,4-oxadiazol-2-yl)methanone]",22
2,"CCC1(O)CN(Cc2ccc(OC3CN(C(=O)c4nnc(-c5ccc(OC)cc5)o4)C3)cc2)C1 [Example 70, (3-(4-((3-Ethyl-3-hydroxyazetidin-1-yl)methyl)phenoxy)azetidin-1-yl)(5-(4-methoxyphenyl)-1,3,4-oxadiazol-2-yl)methanone]",20
3,"CCC1(O)CN(Cc2ccc(OC3CN(C(=O)c4nnc(-c5ccc(OC)cc5)o4)C3)c(C)c2)C1 [Example 72, (3-(4-((3-Ethyl-3-hydroxyazetidin-1-yl)methyl)-2-methylphenoxy)azetidin-1-yl)(5-(4-methoxyphenyl)-1,3,4-oxadiazol-2-yl)methanone]",15
4,"CCC1(O)CN(Cc2ccc(OC3CN(C(=O)c4nnc(-c5ccccc5)o4)C3)cc2C)C1 [Example 75, (3-(4-((3-Ethyl-3-hydroxyazetidin-1-yl)methyl)-3-methylphenoxy)azetidin-1-yl)(5-phenyl-1,3,4-oxadiazol-2-yl)methanone]",17
5,"COc1ccc(-c2nnc(C(=O)N3CC(Oc4ccc(CN5CC(C)(O)C5)cc4)C3)o2)cc1 [Example 76, (3-(4-((3-Hydroxy-3-methylazetidin-1-yl)methyl)phenoxy)azetidin-1-yl)(5-(4-methoxyphenyl)-1,3,4-oxadiazol-2-yl)methanone]",23
6,"CC1(O)CN(Cc2ccc(OC3CN(C(=O)c4nnc(-c5ccccc5)o4)C3)cc2)C1 [Example 77, (3-(4-((3-Hydroxy-3-methylazetidin-1-yl)methyl)phenoxy)azetidin-1-yl)(5-phenyl-1,3,4-oxadiazol-2-yl)methanone]",40
7,"CC1(O)CN(Cc2ccc(OC3CN(C(=O)c4nnc(-c5ccccc5)o4)C3)c(Cl)c2)C1 [Example 78, (3-(2-Chloro-4-((3-hydroxy-3-methylazetidin-1-yl)methyl)phenoxy)azetidin-1-yl)(5-phenyl-1,3,4-oxadiazol-2-yl)methanone]",42
8,"COc1ccc(-c2nnc(C(=O)N3CC(Oc4ccc(CN5CC(C)(O)C5)c(C)c4)C3)o2)cc1 [Example 80, (3-(4-((3-Hydroxy-3-methylazetidin-1-yl)methyl)-3-methylphenoxy)azetidin-1-yl)(5-(4-methoxyphenyl)-1,3,4-oxadiazol-2-yl)methanone]",23
9,"COc1ccc(-c2nnc(C(=O)N3CC(Oc4ccc(CN5CCC(F)(CO)CC5)cc4)C3)o2)cc1 [Example 81, (3-(4-((4-Fluoro-4-(hydroxymethyl)piperidin-1-yl)methyl)phenoxy)azetidin-1-yl)(5-(4-methoxyphenyl)-1,3,4-oxadiazol-2-yl)methanone]",25
10,"COc1ccc(-c2nnc(C(=O)N3CC(Oc4ccc(CN5CCC(C)(CO)CC5)c(C)c4)C3)o2)cc1 [Example 82, (3-(4-((4-(Hydroxymethyl)-4-methylpiperidin-1-yl)methyl)-3-methylphenoxy)azetidin-1-yl)(5-(4-methoxyphenyl)-1,3,4-oxadiazol-2-yl)methanone]",22
11,"COc1ccc(-c2nnc(C(=O)N3CC(Oc4ccc(CN5CCC(C)(CO)CC5)cc4)C3)o2)cc1 [Example 83, (3-(4-((4-(Hydroxymethyl)-4-methylpiperidin-1-yl)methyl)phenoxy)azetidin-1-yl)(5-(4-methoxyphenyl)-1,3,4-oxadiazol-2-yl)methanone]",25
12,"COc1ccc(-c2nnc(C(=O)N3CC(Oc4ccc(CN5CCCC(O)CC5)cc4)C3)o2)cc1 (centres unmarked) [Example 86, (3-(4-((4-hydroxyazepan-1-yl)methyl)phenoxy)azetidin-1-yl)(5-(4-methoxyphenyl)-1,3,4-oxadiazol-2-yl)methanone]",15
13,"CC1(O)CCCN(Cc2ccc(OC3CN(C(=O)c4nnc(-c5ccccc5)o4)C3)cc2)CC1 (centres unmarked) [Example 87, (3-(4-((4-hydroxy-4-methylazepan-1-yl)methyl)phenoxy)azetidin-1-yl)(5-phenyl-1,3,4-oxadiazol-2-yl)methanone]",8.1
14,"COc1ccc(-c2nnc(C(=O)N3CC(Oc4ccc(CN5CCCC(C)(O)CC5)cc4)C3)o2)cc1 (centres unmarked) [Example 88, (3-(4-((4-hydroxy-4-methylazepan-1-yl)methyl)phenoxy)azetidin-1-yl)(5-(4-methoxyphenyl)-1,3,4-oxadiazol-2-yl)methanone]",17
15,"COc1ccc(-c2nnc(C(=O)N3CC(Oc4ccc(CN5CCC(CO)CC5)cc4)C3)o2)cc1 [Example 89, (3-(4-((4-(hydroxymethyl)piperidin-1-yl)methyl)phenoxy)azetidin-1-yl)(5-(4-methoxyphenyl)-1,3,4-oxadiazol-2-yl)methanone]",22

# Other lines, results leading:
row,IC50 [nM],Structure (SMILES)
1,34,"COc1ccc(-c2nnc(C(=O)N3CC(Oc4ccc(CN5CC(C)(O)C5)cc4Cl)C3)o2)cc1 [Example 79, (3-(2-Chloro-4-((3-hydroxy-3-methylazetidin-1-yl)methyl)phenoxy)azetidin-1-yl)(5-(4-methoxyphenyl)-1,3,4-oxadiazol-2-yl)methanone]"
2,23,"CCC1(O)CN(Cc2ccc(OC3CN(C(=O)c4nnc(-c5ccccc5)o4)C3)cc2)C1 [Example 71, (3-(4-((3-Ethyl-3-hydroxyazetidin-1-yl)methyl)phenoxy)azetidin-1-yl)(5-phenyl-1,3,4-oxadiazol-2-yl)methanone]"
3,19,"CC1(CO)CCN(Cc2ccc(OC3CN(C(=O)c4nnc(-c5ccccc5)o4)C3)cc2)C1 (centres unmarked) [Example 85, (3-(4-((3-(hydroxymethyl)-3-methylpyrrolidin-1-yl)methyl)phenoxy)azetidin-1-yl)(5-phenyl-1,3,4-oxadiazol-2-yl)methanone]"
4,18,"CCC1(O)CN(Cc2ccc(OC3CN(C(=O)c4nnc(-c5ccccc5)o4)C3)c(C)c2)C1 [Example 74, (3-(4-((3-Ethyl-3-hydroxyazetidin-1-yl)methyl)-2-methylphenoxy)azetidin-1-yl)(5-phenyl-1,3,4-oxadiazol-2-yl)methanone]"
5,17,"COc1ccc(-c2nnc(C(=O)N3CC(Oc4ccc(CN5CCC(C)(CO)C5)cc4)C3)o2)cc1 (centres unmarked) [Example 84, (3-(4-((3-(hydroxymethyl)-3-methylpyrrolidin-1-yl)methyl)phenoxy)azetidin-1-yl)(5-(4-methoxyphenyl)-1,3,4-oxadiazol-2-yl)methanone]"
6,16,"COc1ccc(-c2nnc(C(=O)N3CC(Oc4ccc(CN5CCC(C)(CO)C5)cc4C)C3)o2)cc1 (centres unmarked) [Example 90, (3-(4-((3-(hydroxymethyl)-3-methylpyrrolidin-1-yl)methyl)-2-methylphenoxy)azetidin-1-yl)(5-(4-methoxyphenyl)-1,3,4-oxadiazol-2-yl)methanone]"
7,15,"CCC1(CO)CCN(Cc2ccc(OC3CN(C(=O)c4nnc(-c5ccc(OC)cc5)o4)C3)cc2)CC1 [Example 92, (3-(4-((4-Ethyl-4-(hydroxymethyl)piperidin-1-yl)methyl)phenoxy)azetidin-1-yl)(5-(4-methoxyphenyl)-1,3,4-oxadiazol-2-yl)methanone]"
8,14,"CCC1(O)CN(Cc2ccc(OC3CN(C(=O)c4nnc(-c5ccc(OC)cc5)o4)C3)cc2C)C1 [Example 73, (3-(4-((3-Ethyl-3-hydroxyazetidin-1-yl)methyl)-3-methylphenoxy)azetidin-1-yl)(5-(4-methoxyphenyl)-1,3,4-oxadiazol-2-yl)methanone]"
9,11,"COc1ccc(-c2nnc(C(=O)N3CC(Oc4ccc(CN5CCC(C)(CO)C5)c(C)c4)C3)o2)cc1 (centres unmarked) [Example 91, (3-(4-((3-(hydroxymethyl)-3-methylpyrrolidin-1-yl)methyl)-3-methylphenoxy)azetidin-1-yl)(5-(4-methoxyphenyl)-1,3,4-oxadiazol-2-yl)methanone]"

# Same assay, conditions: when tested in the above referenced assays (MCH binding assay; MCHR1 receptor activation assay); read-out: IC50 value
row,IC50 [nM],Structure (SMILES)
1,≥ 100,"Cc1cc(OC2CN(C(=O)c3nnc(-c4ccccc4)o3)C2)ccc1CN(C1CC1)C1CC1 [[3-[4-[(dicyclopropylamino)methyl]-3-methyl-phenoxy]azetidin-1-yl]-(5-phenyl-1,3,4-oxadiazol-2-yl)methanone]"

# System: not given
# Assay: not given
# Settings: not given
row,melting point [°C],Structure (SMILES)
1,135,"Cc1cc(OC2CN(C(=O)c3nnc(-c4ccccc4)o3)C2)ccc1CN(C)C [Example 21, (3-(4-((Dimethylamino)methyl)-3-methylphenoxy)azetidin-1-yl)(5-phenyl-1,3,4-oxadiazol-2-yl)methanone]"
